Results reported in patent US20130296441A1, “Anti-Obesity Properties of Pterostilbene” (priority 2012, published 2013).
Read-outs that look alike come from different tables or passages of the source. Marks after values point to notes of the source that are not given here.

Experiments:
[1] = test system: male Wistar rats fed obesogenic diet high in sucrose and fat; test: Body weight, food intake, adipose tissue and muscle weights in rats fed an obesogenic diet with pterostilbene for 6 weeks; assay type: in vivo, rat; settings: for decrease in total adipose tissue mass: versus control; for Adipose Tissue Weight, Epididymal / Adipose Tissue Weight, Interscapular Brown / Adipose Tissue Weight, Mesenteric / Adipose Tissue Weight, Perirenal / Adipose Tissue Weight, Subcutaneous / Adipose Tissue Weight, Total Fat Depots / Body Weight Increase / Food Intake / Final Body Weight: mean ± SEM; for Final Body Weight: n = 9, in g
Method: (§1) The experiment was conducted with twenty seven male Wistar rats with an initial body weight of 180±2 grams purchased from Harlan Ibérica (Barcelona, Spain), and took place in accordance with the University of the Basque Country's guide for the care and use of laboratory animals (Reference protocol approval CUEID CEBA/30/2010). The rats were individually housed in polycarbonate metabolic cages (Techniplast Gazzada, Guguggiate, Italy) and placed in an air-conditioned room (22±2° C.) with a 12 h light-dark cycle. After a 6-day adaptation period, rats were randomly divided in 3 dietary groups of nine animals each, and fed on a commercial obesogenic diet, high in sucrose (20.0%) and fat (22.5%) (Harlan Iberica, TD.06415). Pterostilbene was added to the diet. Rats in the pterostilbene groups received 15 mg/kg body weight/d (PT15 group) or 30 mg/kg body weight/d (PT30 group). All animals had free access to food and water. Food intake and body weight were daily measured.
At the end of the 6-week experimental period, animals were sacrificed, under anaesthesia (chloral hydrate), by cardiac exsanguination. White adipose tissue from different anatomical locations (perirenal, epididymal, mesenteric and subcutaneous) and liver were dissected, weighed and immediately frozen.

[2] = Serum and tissue levels of pterostilbene by GC-MS; assay type: in vivo, rat; settings: for concentration at 6 weeks: male, Wistar, rat, oral
Method: as §1
Extraction of pterostilbene in the serum was according to published procedure (Kotani et al. 2003. J. Chromatogr. B. 788:269-275), with modifications. Serum from −80° C. storage was thawed on ice. To 50 μL serum was added 15 μL of β-glucuronidase (from E. coli, Type IX-A, Sigma-Aldrich, St. Louis, Mo., USA; 250 U/15 mL sodium phosphate buffer, 0.1M, pH 6.8) and 15 μL of sulfatase (from Abalone Entrails, Type VIII, Sigma-Aldrich, St. Louis, Mo., USA; 20 U/15 mL sodium phosphate buffer, 0.1M, pH 6.8), then vortex-mixed. This mixture was incubated for 20 hr at 37° C. while shaking at 750 rpm, cooled to room temperature, then partitioned with ethyl acetate (75 μL×3). The ethyl acetate layers were combined and dried under nitrogen. The dried sample was derivatized with 40 μL of N,O-bis[trimethylsilyl]-trifluoroacetamide: dimethyl-formamide (BSTFA:DMF, 1:1; Pierce Biotechnology, Inc., Rockford, Ill.), heated at 70° C. for 40 min and used for the analysis of pterostilbene by gas chromatography-mass spectrometry (GC-MS).
Pterostilbene in liver and muscle was extracted following published procedure (Hou et al. 2011. Planta Med. 77:455-460), with minor modifications. For liver, 100 mg fresh tissues were homogenized in 1 mL saline solution (0.9% NaCl in H2O). For muscle, 100 mg lyophilized tissue was homogenized in 1 mL sodium acetate buffer, pH 5. To the homogenates was added 300 μL enzyme solution (793.67 U/mL sulfatase and 666.66 U/mL β-glucuronidase in sodium acetate buffer, pH 5), vortex-mixed, and incubated at 37° C. for 16 hr while shaking at 750 rpm. To this mixture was added 100 μL of 0.1N HCl, then partitioned with ethyl acetate (800 μL×2). The ethyl acetate layers were combined, then dried under nitrogen. The dried sample was derivatized with BSTFA:DMF under the same conditions used for the analysis of pterostilbene in serum.
For the analysis of pterostilbene in epididymis and subcutaneous tissues, 100 mg of lyophilized tissue was homogenized in 300 μL of sodium acetate buffer, then sonicated for 30 min. To the homogenate was added 300 μl enzyme solution (793.67 U/mL sulfatase and 1333.33 U/mL β-glucuronidase in sodium acetate buffer, pH5) vortex-mixed, and incubated at 37° C., with shaking (750 rpm), for 16 hours. After incubation, 500 μl ice-cold acetonitrile was added, vortex-mixed for 1 min, then centrifuged at 800 rpm (Savant SpeedVac, model number SPD121P-120) for 20 min. The clear supernatant was collected, and again treated with 500 μl ice-cold acetonitrile, vortex-mixed and then centrifuged at 800 rpm for 20 min. The supernatant was then dried under a stream of nitrogen, then derivatized with BSTFA:DMF using the same conditions as in the analysis of pterostilbene in serum.
GC-MS analysis of pterostilbene in serum and tissues was performed using a J&W DB-5 capillary column (0.25 mm internal diameter, 0.25 μm film thickness, 30 m length; Agilent Technologies, Foster City, Calif.) on a JEOL GCMate II Instrument (JEOL USA Inc., Peabody, Mass.). […]

[3] = in vivo; cited from earlier work
mice = mice fed 28 days at doses up to 3000 mg/kg body weight/d; cited from earlier work
[4] = PT15: 15 mg/kg body weight/d in diet
[5] = PT30: 30 mg/kg body weight/d in diet

For `COc1cc(/C=C/c2ccc(O)cc2)cc(OC)c1` [pterostilbene], the “decrease in total adipose tissue mass” value ([1]; PT15: 15 mg/kg BW/d) was 15.1%, the “Adipose Tissue Weight, Epididymal” value [1, 4] was 10.5 ± 0.9 g and the “Adipose Tissue Weight, Interscapular Brown” value [1, 4] was 1.01 ± 0.23 g. For the same compound, the “Adipose Tissue Weight, Mesenteric” value [1, 4] was 5.2 ± 0.4^ab g, the “Adipose Tissue Weight, Perirenal” value [1, 4] was 12.0 ± 1.1^ab g and the “Adipose Tissue Weight, Subcutaneous” value [1, 4] was 12.6 ± 1.2^b g. The “Adipose Tissue Weight, Total Fat Depots” value [1, 4] was 40.3 ± 3.0^b g, the “Body Weight Increase” value [1, 4] was 206 ± 9 g and the “Food Intake” value [1, 4] was 17.7 ± 0.5 g/day. For the same compound, the “Final Body Weight” value [1, 4] was 382 ± 5, the “decrease in total adipose tissue mass” value ([1]; PT30: 30 mg/kg BW/d) was 22.9% and the “Adipose Tissue Weight, Epididymal” value [1, 5] was 10.5 ± 1.1 g. For the same compound, the “Adipose Tissue Weight, Interscapular Brown” value [1, 5] was 0.75 ± 0.05 g, the “Adipose Tissue Weight, Mesenteric” value [1, 5] was 4.8 ± 0.5^b g and the “Adipose Tissue Weight, Perirenal” value [1, 5] was 11.2 ± 1.0^b g. For the same compound, the “Adipose Tissue Weight, Subcutaneous” value [1, 5] was 12.7 ± 1.6^b g, the “Adipose Tissue Weight, Total Fat Depots” value [1, 5] was 36.6 ± 3.5^b g and the “Body Weight Increase” value [1, 5] was 200 ± 6 g. For the same compound, the “Food Intake” value [1, 5] was 17.5 ± 0.3 g/day, the “Final Body Weight” value [1, 5] was 382 ± 5 and the “Muscle level of pterostilbene” value ([2]; PT15: 15 mg/kg body weight/d in diet, 6 weeks) was “Not Detected”. The concentration at 6 weeks ([2]; epididymis, PT15: 15 mg/kg body weight/d in diet, dry weight, n = 8, read-out: Epididymis level of pterostilbene) was 10.9 ± 5.3 ng/g, the concentration at 6 weeks ([2]; epididymis, PT30: 30 mg/kg body weight/d in diet, dry weight, n = 8, read-out: Epididymis level of pterostilbene) was 30.7 ± 11 ng/g and the concentration at 6 weeks ([2]; liver, PT15: 15 mg/kg body weight/d in diet, fresh weight, n = 8, read-out: Liver level of pterostilbene) was 308 ± 117 ng/g. The concentration at 6 weeks ([2]; liver, PT30: 30 mg/kg body weight/d in diet, fresh weight, n = 6, read-out: Liver level of pterostilbene) was 726 ± 112 ng/g, the concentration at 6 weeks ([2]; muscle, PT30: 30 mg/kg body weight/d in diet, dry weight, n = 8, read-out: Muscle level of pterostilbene) was 9.1 ± 2 ng/g and the concentration at 6 weeks ([2]; serum, PT15: 15 mg/kg body weight/d in diet, after glucuronidase/sulfatase hydrolysis, n = 8, read-out: Serum level of pterostilbene) was 384 ± 54.7 ng/mL. It also gave a concentration at 6 weeks ([2]; serum, PT30: 30 mg/kg body weight/d in diet, after glucuronidase/sulfatase hydrolysis, n = 6, read-out: Serum level of pterostilbene) of 789 ± 246 ng/mL, a concentration at 6 weeks ([2]; subcutaneous tissue, PT15: 15 mg/kg body weight/d in diet, dry weight, n = 7, read-out: Subcutaneous tissue level of pterostilbene) of 20.5 ± 13.7 ng/g and a concentration at 6 weeks ([2]; subcutaneous tissue, PT30: 30 mg/kg body weight/d in diet, dry weight, n = 7, read-out: Subcutaneous tissue level of pterostilbene) of 35.4 ± 7.7 ng/g. For the same compound, the half-life [3] was “approximately 2 hr” and the “toxic or adverse biochemical effects compared to controls” value (mice) was “no significant toxic or adverse biochemical effects”.
